# Measured values taken from patent publication EP0771560A1, “Use of 2- N-(1,2-benzoisothiazolyl-3(2H)one-1,1-dioxide ethyl 5-ethoxycarbonyl-2,4,6-trimethyl-1,4-dihydropiridine-3-carboxylate in the treatment of vascular disorders” (LABORATORIOS ALTER, S.A., priority 1995, dated 1997).
# Read-outs that look alike come from different tables or passages of the source.
# Experiments:
# A10 cells = assay: Inhibition of smooth muscle cell proliferation induced by bovine fetal serum (DNA synthesis by inclusion of BrdU); type: cell-based, rat; settings: for inhibition at 50 µM / inhibition at 0.5 µM / inhibition at 5 µM: Rattus norvegicus; for % LABELED CELLS (Average ± S.D.): 10% bovine fetal serum, BrdU inclusion
# Method: In these experiments a rat aorta smooth muscle cell line obtained from American Type Culture Collection (ATCC;A10 CRL 1476) was used. The cells were grown in a humidified atmosphere (37^º C; 95% air - 5% CO2) in Dulbecco's Modified Eagle Medium (DMEM) containing 10 % bovine fetal serum supplemented with 20 mM L-glutamine, 100 IU/ml penicillin, 100 µg/ml streptomycin and 0.25 µg/ml Amphotericin B (antibiotic-antimycotic solution, Gibco). The medium was replaced every two days.
# To study the effect of PCA-4230 and of the other compounds, the DNA synthesis was measured by deterimining the inclusion of BrdU (an analogue of thymidine). The cells were isolated by trypsinization (trypsin 0.05% in EDTA 0.02%) and were seeded on glass cover-glasses in culture plates of 24 cups, at a density of 10^4 cells per cup. The cells were grown for 24 hours in DMEM with 10% BFS to allow adhesion of the cells to the slides. Afterwards, the cells were washed with serum-free DMEM containing 0.2% bovine serum albumin (BSA). They were incubated for 48 hours in the same medium to obtain quiescent cells. Afterwards, proliferation was induced by replacement of the medium by DMEM containing 10% bovine fetal serum, along with the vehicle or drugs at the suitable concentrations (0.5 to 50 µM for PCA-4230 and 50 µM for the rest of the compounds): The cells were grown in these conditions for 16 hours and, afterwards, BrdU was added and the culture was continued for two to three hours.
# smooth muscle cells = settings: from J. Bernhardt et al. (1993); cited from earlier work
# [1] = system: c-fos and c-jun proto-oncogenes; assay: Expression of c-fos and c-jun proto-oncogenes (Northern hybridization of total RNA) in serum-stimulated cells; type: cell-based, rat; settings: 5x10^-5M; cells stimulated for 30 minutes with 10% FCS; result in words
# Method: The expression of the c-fos and c-jun proto-oncogenes was analyzed in cells fasted for 48h (cultured in serum-free DMEM, containing BSA 0.2%) and subsequently stimulated for 30 minutes with 10% FCS in the presence of absence of PCA-4230 (5x10^-5M). The total RNA was extracted from said cells using a previously described method (P Chomczynski and N. Sacchi (1987), Ann. Biochem. 162: 156-159).
# Immediately, the extracted RNA (10 µg) was resolved by eletrophoresis in agarose gel (1.2% agarose + formaldehyde + formamide). The gel was then transferred to a nylon membrane and this was hybridized with specific probes for c-fos and c-jun (previously labeled with [^32P]-deoxy CTP). The membrane was finally exposed to a sensitive film (Kodak X-OMAT) for 8-17 hours at -70^º C. The level of expression of the oncogenes was brought back to normal by using a specific probe for β-actin.
# [2] = system: Non-arteriosclerotic aorta smooth muscle cells (NASA); assay: Intracellular communication: transference of Lucifer Yellow dye after microinjection, normal cells; type: cell-based, human; settings: NORMAL (HEALTHY) cells, 0.4 µM, incubated for 1 hour
# Text: (§1) Materials and Methods. Non-arteriosclerotic aorta smooth muscle cells (NASA), obtained from biopsies of organs to be used in heart transplants were used. The atheromatous smooth muscle cells (ASA) were obtained from biopsies obtained from arteriosclerotic arteries coming from aorta reconstruction. These biopsies were used as a source for cultures by explant, avoiding the use of enzymatic additives or detergents. The cells were left to grow until confluence, in M199 medium, supplemented with 5% BFS and antibiotics as in the previous example. The pureness of the cultures was determined by specific staining of the same with anti-α actin of smooth muscle cells.
# (§2) Intracellular communication was studied by evaluating the transference of the fluorescent dye Lucifer Yellow from a single cell, in which it is inserted by microinjection, to the surrounding cells. The extent of this transference of dye was determined in 40 normal cells and in 100 atheromatous cells.
# (§3) The same experiment was carried out with Verapamyl 0.4 µM, used as a standard drug with calcium antagonist activity and with 0.02% dimethylsulfoxide, the vehicle used in both cases.
# (§4) The same study was repeated with the vehicle and with Verapamyl.
# [3] = system: atheromatous smooth muscle cells (ASA); assay: Intracellular communication: transference of Lucifer Yellow dye after microinjection, atheromatous cells; type: cell-based, human; settings: 0.4 µM (200 ng/ml for PCA-4230), incubated for 1 hour
# Text: as §1, §2, §3, §4
# [4] = Phase II Clinical Trial, Internal Report; result in words; cited from earlier work
# gap junctions = assay: Freeze Fracture Electron Microscopy (FFEM) of gap junction morphology; type: cell-based, human; settings: cells treated with PCA-4230, result in words
# Text: Subsequently, the cells were fixed with glutaraldehyde and were studied by FFEM "Freeze Fracture Electron Microscopy" to determine the morphology of the gap junctions. The cells were frozen at -110^º C and were fractured. The breakage planes are the planes with less resistance that correspond to the surface of the inside membrane, between lipid bilayers.
# [5] = Table Ib, 50,0 µM/L, two experiments in triplicate
# [6] = Table Ib, 50,0 µM/L, versus vehicle
# [7] = A10, Table Ib, 50,0 µM/L, versus vehicle, read-out: % INHIBITIÓN
smiles,measurement,setting,value
"CC(=O)Oc1ccccc1C(=O)O [ASPIRIN, aspirin, reference compound]",inhibition at 50 µM,"A10 cells; A10, read-out: % INHIBITIÓN",25.5%
same,% LABELED CELLS (Average ± S.D.),A10 cells; [5],"22.2 ± 1,8%"
same,% INHIBITIÓN,A10 cells; [6],weak inhibitory effect
same,aspirin concentrations at which inhibition of the proliferation of smooth muscle cells is achieved,smooth muscle cells,higher than 270 µM
CCOC(=O)C1=C(C)NC(C)=C(C(=O)OCCN2C(=O)c3ccccc3S2(=O)=O)C1C (stereo not drawn) [PCA-4230],cell proliferation induced by bovine fetal serum,"A10 cells; 0.5 to 50 µM, result in words",inhibited cell proliferation induced by bovine fetal serum proportionally to the concentration
same,inhibition at 0.5 µM,"A10 cells; A10, Table Ia, 0,5 µM/L, versus vehicle, read-out: % INHIBITIÓN",26.1%
same,inhibition at 5 µM,"A10 cells; A10, Table Ia, 5,0 µM/L, versus vehicle, read-out: % INHIBITIÓN",53.2%
same,inhibition at 50 µM,"A10 cells; A10, Table Ia, 50,0 µM/L, versus vehicle, read-out: % INHIBITIÓN",95.1%
same,inhibition at 0.5 µM,"A10 cells; A10, Table Ib, 0,5 µM/L, versus vehicle, read-out: % INHIBITIÓN",25%
same,inhibition at 5 µM,"A10 cells; A10, Table Ib, 5,0 µM/L, versus vehicle, read-out: % INHIBITIÓN",57.4%
same,inhibition at 50 µM,A10 cells; [7],87.9%
same,% LABELED CELLS (Average ± S.D.),"A10 cells; Table Ia, 0,5 µM/L, three experiments in triplicate","15,0 ± 2,3%"
same,% LABELED CELLS (Average ± S.D.),"A10 cells; Table Ia, 5,0 µM/L, three experiments in triplicate","9,5 ± 1,1%"
same,% LABELED CELLS (Average ± S.D.),"A10 cells; Table Ia, 50,0 µM/L, three experiments in triplicate","1,0 ± 0,6%"
same,% LABELED CELLS (Average ± S.D.),"A10 cells; Table Ib, 0,5 µM/L, two experiments in triplicate","22,3 ± 0,9%"
same,% LABELED CELLS (Average ± S.D.),"A10 cells; Table Ib, 5,0 µM/L, two experiments in triplicate","12,7 ± 1,4%"
same,% LABELED CELLS (Average ± S.D.),A10 cells; [5],"3,6 ± 0,3%"
same,transcription of the c-fos and c-jun proto-oncogenes,[1],suppressive effect
same,N° CELLS LABELED BY INJECTION,[2],"2,40 ± 0,18"
same,N° CELLS LABELED BY INJECTION,[3],2.42 ± 0.34
same,hypolipidemic effect,[4],moderate hypolipidemic effect
same,"morphology, distribution and number of the gap junctions",gap junctions,No differences were observed
"Clc1ccccc1CN1CCc2sccc2C1 [THICLOPYD., Thiclopydine, reference compound]",inhibition at 50 µM,A10 cells; [7],17.1%
same,% LABELED CELLS (Average ± S.D.),A10 cells; [5],"24,7 ± 1,5%"
same,% INHIBITIÓN,A10 cells; [6],weak inhibitory effect
"COc1ccc(CCN(C)CCCC(C#N)(c2ccc(OC)c(OC)c2)C(C)C)cc1OC (stereo not drawn) [VERAPAMYL, Verapamyl, reference compound]",N° CELLS LABELED BY INJECTION,[3],"7,20 ± 0,54"
same,N° CELLS LABELED BY INJECTION,[3]; listed as Verapamyl,did not show any significant effects
